Experiments:
[1] = molecular target: T1, wildtype STAT5B protein (SH2 domain) (Homo sapiens, UniProt P51692); assay: Fluorescence polarization competitive binding, STAT5b; conditions: FP; for Ki: converted from IC50 with Equation 1; for IC50: 5-FAM-GpYLVLDKW 10 nM, STAT5B 250 nM
T1 sequence (P51692 1-787): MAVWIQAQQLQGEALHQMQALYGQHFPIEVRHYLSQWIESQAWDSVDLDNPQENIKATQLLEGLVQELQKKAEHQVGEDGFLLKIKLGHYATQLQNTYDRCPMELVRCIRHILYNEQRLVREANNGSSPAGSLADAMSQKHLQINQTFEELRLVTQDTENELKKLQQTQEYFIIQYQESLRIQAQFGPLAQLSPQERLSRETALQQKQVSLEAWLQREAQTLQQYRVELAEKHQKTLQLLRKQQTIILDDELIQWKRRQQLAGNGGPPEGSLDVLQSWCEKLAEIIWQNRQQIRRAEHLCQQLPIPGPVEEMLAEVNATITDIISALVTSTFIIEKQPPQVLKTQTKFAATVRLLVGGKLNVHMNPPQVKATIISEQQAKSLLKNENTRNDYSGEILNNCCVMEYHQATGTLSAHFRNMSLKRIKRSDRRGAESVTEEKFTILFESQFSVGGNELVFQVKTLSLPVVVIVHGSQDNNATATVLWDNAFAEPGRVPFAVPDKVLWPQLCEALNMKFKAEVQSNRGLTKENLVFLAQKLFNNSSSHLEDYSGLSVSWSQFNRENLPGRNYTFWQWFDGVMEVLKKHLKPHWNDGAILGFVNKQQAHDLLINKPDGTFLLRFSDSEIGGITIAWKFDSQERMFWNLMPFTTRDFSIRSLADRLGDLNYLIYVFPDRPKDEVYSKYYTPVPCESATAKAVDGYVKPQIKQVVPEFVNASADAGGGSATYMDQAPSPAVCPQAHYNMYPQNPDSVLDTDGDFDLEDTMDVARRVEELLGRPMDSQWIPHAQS
Procedure: (§1) Fluorescence assays were performed in flat black 384-well plates (Corning) and fluorescence polarization measurements were taken with the Infinite M1000 machine (Tecan, Crailsheim, Germany). The buffer conditions for all assays were 20 mM HEPES, 50 mM NaCl, 1 mM EDTA, 2 mM dithiothreitol, pH 7.5 and the final DMSO concentration in the wells was kept constant at 10%.
The point at which 80% of the fluoresceinated-phosphopeptide was bound was used as the optimal protein concentration required for the competitive fluorescent polarization assays.
Compounds were titrated at concentrations ranging from 1->60,000 nM and incubated for a further 15 minutes at which point fluorescence polarization measurements were taken in triplicate. The final well concentrations of the fluoresceinated-phosphopeptide and STAT5B were 10 nM and 250 nM, respectively.
The resulting fluorescence polarization measurements were normalized and plotted against compound concentration on a logarithmic scale. The raw data was fitted with a standard dose-normalized response inhibition curve using GraphPad Prism 6 software.
(§2) Modified Cheng-Pruskoff equation containing a correction factor for protein concentration.

wildtype STAT3 protein = wildtype STAT3 protein (Homo sapiens, UniProt P40763); assay: Fluorescence polarization competitive binding, STAT3; conditions: FP; converted from IC50 with Equation 1
Procedure: as §1, with “Binding of compounds of the disclosure to the STAT5b SH2 domain was assessed using fluorescence polarization assays similar to those previously reported.^15 Analogous assays were also performed with STAT3 protein to determine the specificity of the compounds (13a-d). Fluorescence” for “Fluorescence”
Calibration curves for the wildtype STAT3 and STAT5b proteins were derived by incubating a 10 nM final concentration of fluoresceinated-phosphopeptide (5-FAM-pYLPQTC (SEQ ID NO:1) and 5-FAM-GpYLVLDKW (SEQ ID NO:2) for STAT3 and STAT5B, respectively), which are known to bind the SH2 domains, with increasing concentrations of protein (as shown in FIG. 3). The point at which 80% of the fluoresceinated-phosphopeptide was bound was used as the optimal protein concentration required for the competitive fluorescent polarization assays.
For the STAT5b fluorescence polarization assays, the 5-FAM-GpYLVLDKW (SEQ ID NO:2) peptide and STAT5b protein were first incubated for 30 minutes at room temperature. Compounds were titrated at concentrations ranging from 1->60,000 nM and incubated for a further 15 minutes at which point fluorescence polarization measurements were taken in triplicate. The final well concentrations of the fluoresceinated-phosphopeptide and STAT5B were 10 nM and 250 nM, respectively. The same protocol was used for the analogous STAT3 FP assays, except that the 5-FAM-pYLPQTC (SEQ ID NO:1) peptide was used as a probe and the final STAT3 concentration was 150 nM in each well.
The resulting fluorescence polarization measurements were normalized and plotted against compound concentration on a logarithmic scale. The raw data was fitted with a standard dose-normalized response inhibition curve using GraphPad Prism 6 software. The IC50 values were converted to Ki values using Equation 1, which corrects for protein concentration and is a more accurate determination of inhibitory constants in a fluorescence polarization assay than the Cheng-Pruskoff equation.^15 All inhibitory constants and calculated Ki values are summarized in Table 1.
as §2

Chain of wildtype STAT3 protein (P40763 whole entry, species assumed, the tested form may be a part): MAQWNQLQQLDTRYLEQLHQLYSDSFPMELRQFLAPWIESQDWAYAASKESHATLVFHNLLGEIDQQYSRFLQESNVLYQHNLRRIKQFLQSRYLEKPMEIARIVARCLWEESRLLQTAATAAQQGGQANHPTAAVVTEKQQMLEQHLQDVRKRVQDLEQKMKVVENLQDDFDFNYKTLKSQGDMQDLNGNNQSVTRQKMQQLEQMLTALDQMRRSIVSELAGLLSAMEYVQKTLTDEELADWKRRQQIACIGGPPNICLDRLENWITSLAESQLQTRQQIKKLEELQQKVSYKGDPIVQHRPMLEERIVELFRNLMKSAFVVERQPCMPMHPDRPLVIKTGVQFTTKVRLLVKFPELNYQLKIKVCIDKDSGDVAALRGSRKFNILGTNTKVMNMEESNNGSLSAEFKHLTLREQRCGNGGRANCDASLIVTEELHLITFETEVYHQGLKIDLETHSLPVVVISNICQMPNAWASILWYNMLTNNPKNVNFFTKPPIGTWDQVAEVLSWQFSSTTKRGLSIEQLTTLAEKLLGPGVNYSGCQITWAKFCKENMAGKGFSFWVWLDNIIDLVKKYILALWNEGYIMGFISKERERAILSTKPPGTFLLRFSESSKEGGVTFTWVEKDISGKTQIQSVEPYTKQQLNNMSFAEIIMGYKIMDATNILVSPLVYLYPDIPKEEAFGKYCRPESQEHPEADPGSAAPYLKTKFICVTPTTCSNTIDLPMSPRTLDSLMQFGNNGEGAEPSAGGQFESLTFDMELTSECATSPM

SMILES	Ki [1] [µM]	IC50 [1] [µM]	Ki (wildtype STAT3 protein) [µM]
O=c1ccoc2ccccc12 [Chromone, reference compound]	> 60	–	–
Cc1cc(C)c(S(=O)(=O)N(CC(=O)N(Cc2cc(C(C)(C)C)cc(C(C)(C)C)c2)c2ccc(C(=O)O)c(O)c2)Cc2ccc(Cl)cc2)c(C)c1 [Compound 13b, 4-(2-((N-(4-chlorobenzyl)-2,4,6-trimethylphenyl)sulfonamido)-N-(3,5-di-tert-butylbenzyl)acetamido)-2-hydroxybenzoic Acid]	2.57	6.53	> 60
Cc1cc(C)c(S(=O)(=O)N(CC(=O)N(Cc2ccc3ccccc3c2)c2ccc(C(=O)O)c(O)c2)Cc2ccc(Cl)cc2)c(C)c1 [Compound 13c, 4-(2-((N-(4-chlorobenzyl)-2,4,6-trimethylphenyl)sulfonamido)-N-(naphthalene-2-ylmethyl)acetamido)-2-hydroxybenzoic Acid]	3.24	8.2	> 60
O=C(O)c1ccc(N(Cc2ccc3ccccc3c2)C(=O)CN(Cc2ccc(Cl)cc2)S(=O)(=O)c2c(F)c(F)c(F)c(F)c2F)cc1O [Compound 13d, 4-(2-((N-(4-chlorobenzyl)-2,3,4,5,6-pentafluorophenyl)sulfonamido)-N-(-naphthalene-2-ylmethyl)acetamido)-2-hydroxybenzoic Acid]	1.56	3.95	> 60

Reference: patent US10519107B2, “Sulfonamide compounds and their use as STAT5 inhibitors” (Governing Council of the University of Toronto, priority 2014, dated 2019)
